Inhibition of neutrophilia data for 18 compounds are collected here from patent US20090239846A1, “Novel Compounds” (Glaxo Group Limited, priority 2005, published 2009).

Counter-ions that a name gives are not always drawn.

In this experiment the test system is influx of neutrophils to the lung in LPS-challenged rats. Briefly: Rat LPS neutrophilia model. Conditions: LPS aerosol, lavage 4 hours later, in at least one of the range of conditions tested, significance p<0.05. It is filed as in vivo. Here is the method: The effect of compounds on the influx of neutrophils to the lung in LPS-challenged rats is evaluated as follows. The test compound is suspended in one of the following solutions: 0.5% tween 80/PBS, 0.5% tween 80/saline, 10% EtOH/saline (with pH adjusted to 2.0, or 8.0 with HCl, or unadjusted), Saline (pH 2.0, 6.5 or 8.0, 0.5% Tragacanth, 1% DMSO/20% Encapsin/Saline, or acidified 5% Tragacanth. The suspension process may be aided by the use of a glass homogenizer. For intratracheal administration, the animals are anesthetized with inhaled isoflurane and placed in a supine position, the trachea is intubated with a steel gavage needle (1.5 inch, 22 gauge, small ball) or a Penn-Century Microsprayer Aerosolizer (model IA-LB) and 200 ul of dosing solution is delivered. The animals are visually monitored during the recovery process, which typically occurs within two minutes.
Rats treated with compound or vehicle (15 min-24 hours pretreatment) are exposed to an LPS aerosol (100 ug/ml) for 15 min. Four hours later the rats are euthanized with pentobarbital (100 mg/kg, i.p.) and the airways are lavaged with 5 washes of 5 ml of phosphate buffered saline. The harvested cells are stained (Diffquick) and counted to determine total and differential cell data. In a typical study, macrophages represent 40-70% of the total cells, and polymorphonuclear cells 30-60% of the total cells. Inhibition of neutrophil levels relative to no compound controls is calculated based on the differential counts.
The assay has varying conditions, such as concentration, pretreat time, form of the compound (crystalline, amorphous, salts, micronised), and a wet or dry application of the compound.
The data is obtained as % inhibition using a particular concentration and pretreat time.
As to `Cc1c(F)cc(C(=O)Nc2ccccc2)cc1-c1nc(NCCN(C)C)nc2c1CNC(=O)N2c1c(F)cccc1F` [Example 112, 3-(8-(2,6-difluorophenyl)-2-{[2-(dimethylamino)ethyl]amino}-7-oxo-5,6,7,8-tetrahydropyrimido[4,5-d]pyrimidin-4-yl)-5-fluoro-4-methyl-N-phenylbenzamide], the inhibition of neutrophilia result is “statistically significant inhibition of neutrophilia”.

On to `Cc1ccc(C(=O)Nc2ccc(F)cc2)cc1-c1nc(NC2CCN(C)CC2)nc2c1CNC(=O)N2c1c(F)cccc1F` [Example 39, 3-{8-(2,6-difluorophenyl)-2-[(1-methyl-4-piperidinyl)amino]-7-oxo-5,6,7,8-tetrahydropyrimido[4,5-d]pyrimidin-4-yl}-N-(4-fluorophenyl)-4-methylbenzamide], for which the inhibition of neutrophilia entry was “statistically nonsignificant inhibition of neutrophilia”. Take `CN(C)CCNc1nc(-c2cccc(C(=O)Nc3ccc(F)cc3)c2)c2c(n1)N(c1c(F)cccc1F)C(=O)NC2` [Example 93]: the inhibition of neutrophilia result is “statistically nonsignificant inhibition of neutrophilia”. In the case of `Cc1ccc(C(=O)NC(C)C)cc1-c1nc(NCCCN(C)C)nc2c1CNC(=O)N2c1c(F)cccc1F` [Example 40, 3-(8-(2,6-difluorophenyl)-2-{[3-(dimethylamino)propyl]amino}-7-oxo-5,6,7,8-tetrahydropyrimido[4,5-d]pyrimidin-4-yl)-4-methyl-N-(1-methylethyl)benzamide] it was “statistically significant inhibition of neutrophilia”.

For `Cc1ccc(C(=O)Nc2ccc(F)cc2)cc1-c1nc(N(C)CCCN(C)C)nc2c1CNC(=O)N2c1c(F)cccc1F` [Example 9], the inhibition of neutrophilia entry was “statistically nonsignificant inhibition of neutrophilia”. As for `Cc1ccc(C(=O)Nc2ccccc2)cc1-c1nc(NCCN(C)C)nc2c1CNC(=O)N2c1c(F)cccc1F` [Example 137, 3-(8-(2,6-difluorophenyl)-2-{[2-(dimethylamino)ethyl]amino}-7-oxo-5,6,7,8-tetrahydropyrimido[4,5-d]pyrimidin-4-yl)-4-methyl-N-phenylbenzamide], the inhibition of neutrophilia entry is listed as “statistically significant inhibition of neutrophilia”. In the case of `Cc1ccc(C(=O)Nc2ccc(F)cc2)cc1-c1nc(NCCCN(C)C)nc2c1CNC(=O)N2c1c(F)cccc1F` [Example 42, 3-(8-(2,6-difluorophenyl)-2-{[3-(dimethylamino)propyl]amino}-7-oxo-5,6,7,8-tetrahydropyrimido[4,5-d]pyrimidin-4-yl)-N-(4-fluorophenyl)-4-methylbenzamide] it was “statistically significant inhibition of neutrophilia”; in that of `CCN(CC)CCCNc1nc(-c2cc(C(=O)Nc3ccc(F)cc3)ccc2C)c2c(n1)N(c1c(F)cccc1F)C(=O)NC2` [Example 43, 3-[2-{[3-(diethylamino)propyl]amino}-8-(2,6-difluorophenyl)-7-oxo-5,6,7,8-tetrahydropyrimido[4,5-d]pyrimidin-4-yl]-N-(4-fluorophenyl)-4-methylbenzamide], “inactive”. In the case of `Cc1ccc(C(=O)Nc2nccs2)cc1-c1nc(NC[C@H](C)O)nc2c1CNC(=O)N2c1c(F)cccc1F` [Example 134, 3-(8-(2,6-difluorophenyl)-2-{[(2S)-2-hydroxypropyl]amino}-7-oxo-5,6,7,8-tetrahydropyrimido[4,5-d]pyrimidin-4-yl)-4-methyl-N-1,3-thiazol-2-ylbenzamide] it was “statistically nonsignificant inhibition of neutrophilia”; in that of `CCc1ccc(C(=O)Nc2nccs2)cc1-c1nc(NCCN(C)C)nc2c1CNC(=O)N2c1c(F)cccc1F` [Example 144, 3-(8-(2,6-difluorophenyl)-2-{[2-(dimethylamino)ethyl]amino}-7-oxo-5,6,7,8-tetrahydropyrimido[4,5-d]pyrimidin-4-yl)-4-ethyl-N-1,3-thiazol-2-ylbenzamide trifluoroacetate], “statistically significant inhibition of neutrophilia”. In the case of `Cc1ccc(C(=O)NC(C)C)cc1-c1nc(NCCN(C)C)nc2c1CNC(=O)N2c1c(F)cccc1F` [Example 37, 3-(8-(2,6-difluorophenyl)-2-{[2-(dimethylamino)ethyl]amino}-7-oxo-5,6,7,8-tetrahydropyrimido[4,5-d]pyrimidin-4-yl)-4-methyl-N-(1-methylethyl)benzamide] it was “statistically nonsignificant inhibition of neutrophilia”; in that of `Cc1ccc(C(=O)Nc2nccs2)cc1-c1nc(N(C)CCCN(C)C)nc2c1CNC(=O)N2c1c(F)cccc1F` [Example 124, 3-{8-(2,6-difluorophenyl)-2-[[3-(dimethylamino)propyl](methyl)amino]-7-oxo-5,6,7,8-tetrahydropyrimido[4,5-d]pyrimidin-4-yl}-4-methyl-N-1,3-thiazol-2-ylbenzamide], “statistically nonsignificant inhibition of neutrophilia”; in that of `Cc1ccc(C(=O)NC(C)C)cc1-c1nc(N(C)CCN(C)C)nc2c1CNC(=O)N2c1c(F)cccc1F` [Example 36, 3-{8-(2,6-difluorophenyl)-2-[[2-(dimethylamino)ethyl](methyl)amino]-7-oxo-5,6,7,8-tetrahydropyrimido[4,5-d]pyrimidin-4-yl}-4-methyl-N-(1-methylethyl)benzamide], “statistically significant inhibition of neutrophilia”.

For the compound `Cc1ccc(C(=O)Nc2ccc(F)c(F)c2)cc1-c1nc(NCCN(C)C)nc2c1CNC(=O)N2c1c(F)cccc1F` [Example 138, N-(3,4-difluorophenyl)-3-(8-(2,6-difluorophenyl)-2-{[2-(dimethylamino)-ethyl]amino}-7-oxo-5,6,7,8-tetrahydropyrimido[4,5-d]pyrimidin-4-yl)-4-methylbenzamide], the inhibition of neutrophilia entry is given as “statistically significant inhibition of neutrophilia”. To `Cc1ccc(C(=O)Nc2nccs2)cc1-c1nc(NCCCN(C)C)nc2c1CNC(=O)N2c1c(F)cccc1F` [Example 119, 3-(8-(2,6-difluorophenyl)-2-{[3-(dimethylamino)propyl]amino}-7-oxo-5,6,7,8-tetrahydropyrimido[4,5-d]pyrimidin-4-yl)-4-methyl-N-1,3-thiazol-2-ylbenzamide] belongs “statistically significant inhibition of neutrophilia”. Take `CN(C)CCNc1nc(-c2cccc(C(=O)Nc3ccccc3)c2)c2c(n1)N(c1c(F)cccc1F)C(=O)NC2` [Example 91]: the inhibition of neutrophilia result is “statistically significant inhibition of neutrophilia”.

`Cc1ccc(C(=O)NC(C)C)cc1-c1nc(NC2CCN(Cc3ccccc3)CC2)nc2c1CNC(=O)N2c1c(F)cccc1F` [Example 200, 3-(8-(2,6-difluorophenyl)-7-oxo-2-{[1-(phenylmethyl)-4-piperidinyl]amino}-5,6,718-tetrahydropyrimido[4,5-d]pyrimidin-4-yl)-4-methyl-N-(1-methylethyl)benzamide]: the inhibition of neutrophilia entry is recorded as “statistically significant inhibition of neutrophilia”.

Turning to `Cc1ccc(C(=O)NC(C)C)cc1-c1nc(N2CCCN(C)CC2)nc2c1CNC(=O)N2c1c(F)cccc1F` [Example 179, 3-[8-(2,6-difluorophenyl)-2-(4-methylhexahydro-1H-1,4-diazepin-1-yl)-7-oxo-5,6,7,8-tetrahydropyrimido[4,5-d]pyrimidin-4-yl]-4-methyl-N-(1-methylethyl)benzamide trifluoroacetate], the inhibition of neutrophilia entry is recorded as “statistically nonsignificant inhibition of neutrophilia”.
